Structures can show the parent of a compound that is named as a salt. Where two headings read alike, the source gives them in different places.
How the values were obtained:
[1] = system: NCI-H292 lung cancer cells; test: FDA drug screening, complete media vs cholesterol-free media with simvastatin (TABLE 2); assay type: cell-based, human
[2] = system: NCI-H292 lung cancer cells; test: FDA drug screening, complete media vs cholesterol-free media without statin (TABLE 1); assay type: cell-based, human
[3] = NCI-H292 cells, cholesterol-free media with simvastatin 0.04 μM, cell growth value in FDA drug screen
[4] = NCI-H292 cells, complete media, cell growth value in FDA drug screen
[5] = complete media minus cholesterol-free media + simvastatin, >0 enhanced anti-cancer activity, about 0 neutral, <0 antagonist
[6] = NCI-H292 cells, cholesterol-free media without statin, FDA drug library screen
[7] = NCI-H292 cells, complete media, FDA drug library screen
[8] = complete vs cholesterol-free media, >0 enhanced anti-cancer activity, about 0 neutral, <0 antagonist
[9] = NCI-H292 cells, FDA drug library screen, cholesterol-free media with simvastatin 0.04 μM
[10] = NCI-H292 cells, FDA drug library screen, complete media
[11] = complete media vs cholesterol-free media + simvastatin (0.04 μM), >0 enhanced anti-cancer activity, about 0 neutral, <0 antagonist
[12] = Complete minus Cholesterol-free, >0 enhanced anti-cancer activity, about 0 neutral, <0 antagonist
[13] = NCI-H292 cells, cholesterol-free media without statin
[14] = NCI-H292 cells, cholesterol-free media with simvastatin 0.04 μM, FDA drug library screen (TABLE 2)
[15] = NCI-H292 cells, complete media, FDA drug library screen (TABLE 2)
[16] = complete media minus cholesterol-free media + simvastatin (0.04 μM), >0 enhanced anti-cancer activity, about 0 neutral, <0 antagonist
[17] = NCI-H292 cells, FDA library drug in cholesterol-free media with simvastatin 0.04 μM
[18] = NCI-H292 cells, FDA library drug in complete media

COc1c(N2CCNC(C)C2)c(F)cc2c(=O)c(C(=O)O)cn(C3CC3)c12 (centres unmarked) [Gatifloxacin]
Cholesterol-free media + simvastatin (0.04 μM) [1, 3]: 0.9418 | Complete Media [1, 4]: 1.02 | Difference [1, 5]: 0.08 | Cholesterol-free [2, 6]: 1.137 | Complete [2, 7]: 1.266 | Difference [2, 8]: 0.13

CC(C)=CCC/C(C)=C/CC/C(C)=C/CCC(=O)OC/C=C(\C)CCC=C(C)C [Gefarnate]
Cholesterol-free media + simvastatin (0.04 μM) [1]: 1.714 | Complete Media [1]: 1.906 | Difference [1]: 0.19 | Cholesterol-free [2]: 1.413 | Complete [2]: 0.9135 | Difference [2]: −0.50

COc1cc2ncnc(Nc3ccc(F)c(Cl)c3)c2cc1OCCCN1CCOCC1 [Gefitinib (hydrochloride)]
Cholesterol-free media + simvastatin (0.04 μM) [1, 9]: 0.9234 | Complete Media [1, 10]: 0.8455 | Difference [1, 11]: −0.08 | Cholesterol-free [2, 6]: 0.6497 | Complete [2, 7]: 0.8718 | Difference [2, 8]: 0.22

COc1cc2ncnc(Nc3ccc(F)c(Cl)c3)c2cc1OCCCN1CCOCC1 [Gefitinib]
Cholesterol-free media + simvastatin (0.04 μM) [1, 3]: 0.5074 | Complete Media [1, 4]: 0.6027 | Difference [1, 5]: 0.10 | Difference [2, 12]: −0.25 | Cholesterol-free [2, 13]: 0.6996 | Complete ([2]; NCI-H292 cells, complete media): 0.4472

Nc1ccn([C@@H]2O[C@H](CO)[C@@H](O)C2(F)F)c(=O)n1 [Gemcitabine (hydrochloride)]
Cholesterol-free media + simvastatin (0.04 μM) [1, 14]: 0.04392 | Complete Media [1, 15]: 0.02306 | Difference [1, 16]: −0.02 | Difference [2, 12]: −0.04 | Cholesterol-free [2, 6]: 0.05262 | Complete [2, 7]: 0.01403

Nc1ccn([C@@H]2O[C@H](CO)[C@@H](O)C2(F)F)c(=O)n1 [Gemcitabine]
Cholesterol-free media + simvastatin (0.04 μM) [1, 14]: 0.08143 | Complete Media [1, 15]: 0.09095 | Difference [1, 16]: 0.01 | Difference [2, 12]: −0.03 | Cholesterol-free [2, 6]: 0.04572 | Complete [2, 7]: 0.01326

Cc1ccc(C)c(OCCCC(C)(C)C(=O)O)c1 [Gemfibrozil]
Cholesterol-free media + simvastatin (0.04 μM) [1, 9]: 1.808 | Complete Media [1, 10]: 1.701 | Difference [1, 11]: −0.11 | Cholesterol-free [2, 13]: 1.369 | Complete ([2]; NCI-H292 cells, complete media): 0.9198 | Difference ([2]; complete vs cholesterol-free media, greater than 0 enhanced anti-cancer activity, about 0 neutral, below 0 antagonists): −0.45

C#C[C@]1(O)C=C[C@H]2[C@@H]3CCC4=CC(=O)CC[C@@H]4[C@H]3CC[C@@]21CC [Gestodene]
Cholesterol-free media + simvastatin (0.04 μM) [1, 17]: 1.543 | Complete Media [1, 18]: 1.003 | Difference [1, 11]: −0.54 | Difference ([2]; Complete minus Cholesterol-free, greater than 0 enhanced anti-cancer activity, about 0 neutral, below 0 antagonist): −0.11 | Cholesterol-free ([2]; NCI-H292 cells, FDA drug library screen, cholesterol-free media without statin): 1.134 | Complete [2, 10]: 1.023

C#C[C@]1(O)CC[C@H]2[C@@H]3CCC4=CC(=O)CCC4=C3C=C[C@@]21CC [Gestrinone]
Cholesterol-free media + simvastatin (0.04 μM) [1, 9]: 1.007 | Complete Media [1, 10]: 1.693 | Difference ([1]; complete media minus cholesterol-free media + simvastatin, […]): 0.69 | Cholesterol-free [2, 6]: 0.8898 | Complete [2, 7]: 2.026 | Difference ([2]; complete vs cholesterol-free media, […]): 1.14

CCc1nc(C(N)=O)c(Nc2ccc(N3CCC(N4CCN(C)CC4)CC3)c(OC)c2)nc1NC1CCOCC1 [Gilteritinib]
Cholesterol-free media + simvastatin (0.04 μM) [1, 14]: 0.4196 | Complete Media [1, 15]: 0.3685 | Difference [1, 16]: −0.05 | Cholesterol-free [2, 6]: 0.2961 | Complete [2, 7]: 0.7497 | Difference [2, 8]: 0.45

Oc1cc(O)c(Cl)cn1 [Gimeracil]
Cholesterol-free media + simvastatin (0.04 μM) [1, 17]: 2.327 | Complete Media [1, 18]: 1.491 | Difference [1, 11]: −0.84 | Difference [2, 12]: 0.07 | Cholesterol-free [2, 6]: 0.8525 | Complete [2, 7]: 0.9232

O=C(OCC(O)CO)c1ccccc1Nc1ccnc2cc(Cl)ccc12 (centres unmarked) [Glafenine (hydrochloride)]
Cholesterol-free media + simvastatin (0.04 μM) [1]: 0.8957 | Complete Media [1]: 0.9245 | Difference [1]: 0.03 | Cholesterol-free [2]: 1.367 | Complete [2]: 1.255 | Difference [2]: −0.11

O=C(OCC(O)CO)c1ccccc1Nc1ccnc2cc(Cl)ccc12 (centres unmarked) [Glafenine]
Cholesterol-free media + simvastatin (0.04 μM) [1]: 0.9477 | Complete Media [1]: 1.068 | Difference [1]: 0.12 | Cholesterol-free [2]: 1.288 | Difference [2]: −0.12

From patent publication US20250144067A1, “PERSONALIZED STARVATION THERAPY FOR CANCER” (Faeth Therapeutics, Inc., priority 2021, published 2025)
